PubChem BioAssay AID248 (DTP/NCI, 2004)
Values joined by “and” are separate entries in the source; they are usually repeats but may differ in a detail not shown here. Equal entries are not always repeated. Toxic doses and inconclusive results are not listed. No stated cut-off is given here; in the data, active means T/C of 150% or more; inactive means T/C below 125%. Square brackets hold non-standard residues; d marks the D form. Peptide text beside a SMILES is read from it. * marks the point of attachment. Cbz = O=C(OCc1ccccc1)*; Abu = CC[CH](N)C(=O)O; OBn = c1ccc(CO*)cc1

Tested on: L1210 leukemia ip in BDF1 mice, survival T/C
Assay: NCI In Vivo Anticancer Drug Screen. Data for tumor model L1210 Leukemia (intraperitoneal) in B6D2F1 (BDF1) mice
Details: endpoint: mean survival time, higher = longer survival
In short: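 Value reflects the ratio of survival in compound-treated mice to survival in vehicle-treated controls, with both groups carrying the same transplanted tumor.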

[1] = dose: 100.0 mg/kg/injection, schedule: Q01DX009 (ip), vehicle: Klucel (hydroxypropylcellulose) (HPC)
[2] = dose: 100.0 mg/kg/injection, schedule: Q04DX003 (ip), vehicle: Klucel (hydroxypropylcellulose) (HPC)
[3] = dose: 200.0 mg/kg/injection, schedule: Q01DX009 (ip), vehicle: Klucel (hydroxypropylcellulose) (HPC)
[4] = dose: 200.0 mg/kg/injection, schedule: Q04DX003 (ip), vehicle: Klucel (hydroxypropylcellulose) (HPC)
[5] = dose: 400.0 mg/kg/injection, schedule: Q04DX003 (ip), vehicle: Klucel (hydroxypropylcellulose) (HPC)
[6] = dose: 100.0 mg/kg/injection, schedule: Q01DX001 (ip), vehicle: saline
[7] = dose: 200.0 mg/kg/injection, schedule: Q01DX001 (ip), vehicle: saline
[8] = dose: 400.0 mg/kg/injection, schedule: Q01DX001 (ip), vehicle: saline
[9] = dose: 100.0 mg/kg/injection, schedule: Q01DX001 (ip), vehicle: carboxymethylcellulose (CMC)
[10] = dose: 200.0 mg/kg/injection, schedule: Q01DX001 (ip), vehicle: carboxymethylcellulose (CMC)
[11] = dose: 400.0 mg/kg/injection, schedule: Q01DX001 (ip), vehicle: carboxymethylcellulose (CMC)
[12] = dose: 100.0 mg/kg/injection, schedule: Q04DX003 (ip), vehicle: saline
[13] = dose: 100.0 mg/kg/injection, schedule: Q01DX001 (ip), vehicle: Klucel (hydroxypropylcellulose) (HPC)
[14] = dose: 200.0 mg/kg/injection, schedule: Q01DX001 (ip), vehicle: Klucel (hydroxypropylcellulose) (HPC)
[15] = dose: 100.0 mg/kg/injection, schedule: Q01DX009 (ip), vehicle: saline with Tween-80
[16] = dose: 200.0 mg/kg/injection, schedule: Q01DX009 (ip), vehicle: saline with Tween-80
[17] = dose: 100.0 mg/kg/injection, schedule: Q04DX003 (ip), vehicle: saline with Tween-80
[18] = dose: 200.0 mg/kg/injection, schedule: Q04DX003 (ip), vehicle: saline with Tween-80
[19] = dose: 400.0 mg/kg/injection, schedule: Q04DX003 (ip), vehicle: saline with Tween-80
[20] = dose: 12.5 mg/kg/injection, schedule: Q01DX009 (ip), vehicle: saline with Tween-80
[21] = dose: 25.0 mg/kg/injection, schedule: Q01DX009 (ip), vehicle: saline with Tween-80
[22] = dose: 50.0 mg/kg/injection, schedule: Q01DX009 (ip), vehicle: saline with Tween-80
[23] = dose: 400.0 mg/kg/injection, schedule: Q01DX009 (ip), vehicle: Klucel (hydroxypropylcellulose) (HPC)

Measured: T/C

Clc1ccc([S][Pb]([c]2ccccc2)([c]2ccccc2)[c]2ccccc2)cc1
inactive: dose: 100.0 mg/kg/injection, schedule: Q04DX002 (ip), vehicle: gum acacia 88 % of control | dose: 200.0 mg/kg/injection, schedule: Q04DX002 (ip), vehicle: gum acacia 91 % of control

S=c1[nH]c2ccccc2c2ccccc12
inactive: dose: 50.0 mg/kg/injection, schedule: Q01DX009 (ip), vehicle: Klucel (hydroxypropylcellulose) (HPC) 96 % of control | [1] 105 % of control | [2] 97 % of control | [3] 97 % of control | [4] 90 % of control | [5] 95 % of control

NC(N)=N/N=C/c1ccccc1 (tested in a mixture with another compound)
inactive: dose: 12.5 mg/kg/injection, schedule: Q04DX003 (ip), vehicle: acetone 93 % of control | dose: 25.0 mg/kg/injection, schedule: Q04DX003 (ip), vehicle: acetone 96 % of control | dose: 50.0 mg/kg/injection, schedule: Q04DX003 (ip), vehicle: acetone 91 % of control

CCSC(C)(C)C(C)(C#N)NNC(C)(C#N)C(C)(C)SCC (stereo not drawn)
inactive: [6] 101 % of control | [7] 95 % of control | [8] 93 % of control

CCCCC(=O)N/N=C/c1ccc(I)cc1
inactive: [9] 91 % of control | [10] 87 % of control | [11] 91 % of control

CC(=O)N1Cc2cc3ccccc3nc2C1
inactive: [12] 98 % of control | dose: 200.0 mg/kg/injection, schedule: Q04DX003 (ip), vehicle: saline 107 % of control | dose: 400.0 mg/kg/injection, schedule: Q04DX003 (ip), vehicle: saline 96 % of control

COc1ccc(C(=O)C(C)CN2CCCCC2)cc1 (stereo not drawn)
inactive: [6] 96 % of control | [7] 107 % of control

O=C(/C=C\C(=O)c1ccc(Cl)cc1)c1ccc(Cl)cc1
inactive: dose: 50.0 mg/kg/injection, schedule: Q04DX003 (ip), vehicle: carboxymethylcellulose (CMC) 104 % of control | dose: 100.0 mg/kg/injection, schedule: Q04DX003 (ip), vehicle: carboxymethylcellulose (CMC) 112 % of control | dose: 200.0 mg/kg/injection, schedule: Q04DX003 (ip), vehicle: carboxymethylcellulose (CMC) 102 % of control

O=[N+]([O-])c1ccc(-c2ccccc2)cc1
inactive: [6] 102 % of control | [7] 105 % of control | [8] 105 % of control

CCOC(=O)/C=C\CBr
inactive: dose: 4.0 mg/kg/injection, schedule: Q01DX015 (ip), vehicle: carboxymethylcellulose (CMC) 95 % of control | dose: 8.0 mg/kg/injection, schedule: Q01DX015 (ip), vehicle: carboxymethylcellulose (CMC) 93 % of control | dose: 16.0 mg/kg/injection, schedule: Q01DX015 (ip), vehicle: carboxymethylcellulose (CMC) 93 % of control | dose: 32.0 mg/kg/injection, schedule: Q01DX015 (ip), vehicle: carboxymethylcellulose (CMC) 101 % of control | [6] 104 % of control

c1ccc(-c2cc(-c3ccccc3)c(-c3ccccc3)o2)cc1
inactive: dose: 50.0 mg/kg/injection, schedule: Q01DX001 (ip), vehicle: Klucel (hydroxypropylcellulose) (HPC) 92 % of control | [13] 100 % of control | [14] 92 % of control

CCCc1c(Cl)nc(Cl)nc1Cl
inactive: dose: 37.5 mg/kg/injection, schedule: Q01DX009 (ip), vehicle: acetone 111 % of control | dose: 66.0 mg/kg/injection, schedule: Q04DX003 (ip), vehicle: saline 104 % of control and 105 % of control | [9] 100 % of control | [12] 100 % of control and 104 % of control | dose: 150.0 mg/kg/injection, schedule: Q04DX003 (ip), vehicle: saline 106 % of control and 107 % of control | [10] 108 % of control | [11] 96 % of control

COc1cc(OC)c(OC)cc1OC
inactive: [15] 95 % of control | [16] 97 % of control

C(#CCN1CCCCC1)CN1CCCCC1
inactive: dose: 75.0 mg/kg/injection, schedule: Q01DX001 (ip), vehicle: saline 105 % of control | dose: 150.0 mg/kg/injection, schedule: Q01DX001 (ip), vehicle: saline 103 % of control | dose: 300.0 mg/kg/injection, schedule: Q01DX001 (ip), vehicle: saline 101 % of control

[O-][n+]1onc2c(-c3ccccc3)nnc(-c3ccccc3)c21
inactive: [17] 108 % of control | [18] 110 % of control | [19] 111 % of control

CCOC(=O)CS(=O)c1c([N+](=O)[O-])ncn1C (stereo not drawn)
inactive: dose: 6.25 mg/kg/injection, schedule: Q01DX009 (ip), vehicle: saline with Tween-80 97 % of control | [20] 94 % of control | [21] 103 % of control

CCOC(=O)Cc1ccc(N)cc1
inactive: [13] 104 % of control | [14] 101 % of control

CCCCN(C)N=Nc1ccccc1C(=O)OC
inactive: [9] 107 % of control | [10] 117 % of control

O=C1C2C3CCC(CC3)C2C(O)C2C3CCC(C3)C12 (stereo not drawn)
inactive: [22] 93 % of control | [15] 96 % of control | [16] 93 % of control

CC(=O)C(CCC(=O)O)(CCC(=O)O)c1ccccc1
inactive: dose: 30.0 mg/kg/injection, schedule: Q01DX Z (ip), vehicle: other 100 % of control | dose: 60.0 mg/kg/injection, schedule: Q01DX Z (ip), vehicle: other 101 % of control | [2] 92 % of control | dose: 120.0 mg/kg/injection, schedule: Q01DX Z (ip), vehicle: other 95 % of control | [4] 97 % of control | dose: 240.0 mg/kg/injection, schedule: Q01DX Z (ip), vehicle: other 95 % of control | [5] 102 % of control

C1CCC(C2CCCC(C3CCCCC3)C2)CC1 (stereo not drawn)
inactive: [9] 94 % of control | [10] 96 % of control | [11] 94 % of control

S=C=Nc1ccc(Cl)c(Cl)c1
inactive: [20] 104 % of control | [21] 94 % of control | [22] 102 % of control

O=C(O)c1ccccc1C(=O)c1ccc2ccccc2c1
inactive: dose: 12.5 mg/kg/injection, schedule: Q04DX002 (ip), vehicle: saline with Tween-80 94 % of control | dose: 25.0 mg/kg/injection, schedule: Q04DX002 (ip), vehicle: saline with Tween-80 88 % of control | dose: 50.0 mg/kg/injection, schedule: Q04DX002 (ip), vehicle: saline with Tween-80 91 % of control

Cc1cccc(C)c1NC(=S)N(CCC#N)C(C)C
inactive: [1] 103 % of control | [3] 106 % of control | [23] 96 % of control

CC(=O)Nc1ccccc1-c1ccc([N+](=O)[O-])cc1
inactive: [17] 110 % of control | [18] 101 % of control | [19] 101 % of control

CNC(=O)Nc1ncnn1Cc1ccccc1
inactive: dose: 100.0 mg/kg/injection, schedule: Q01DX009 (ip), vehicle: saline 92 % of control | dose: 200.0 mg/kg/injection, schedule: Q01DX009 (ip), vehicle: saline 97 % of control

CCC(NC(=O)OCc1ccccc1)C(=O)NC(C(=O)OCc1ccccc1)C(C)C (stereo not drawn) (Cbz-[Abu]-Val-OBn; configuration not given here)
inactive: [1] 96 % of control | [3] 99 % of control | [23] 96 % of control
